Experimental data taken from ChEMBL document CHEMBL5226375, “Synthesis and Comprehensive in Vivo Activity Profiling of Olean-12-en-28-ol, 3β-Pentacosanoate in Experimental Autoimmune Encephalomyelitis: A Natural Remyelinating and Anti-Inflammatory Agent” (J Nat Prod, 2023).
Activity calls are given as the source filed them. The rule behind the calls is not given here.

What was measured:
Mus musculus [1] = test: Anti-inflammatory activity against MOG35-55-induced experimental autoimmune encephalomyelitis C57BL/6 mouse model assessed as fold change in MAG gene expression in brain at 0.15 mg/kg/day, ig for 14 days starting from 12th day of immunization by RT-qPCR analysis relative to control; type: functional; conditions: time 14 day
Mus musculus [2] = test: Anti-inflammatory activity against MOG35-55-induced experimental autoimmune encephalomyelitis C57BL/6 mouse model assessed as fold change in MBP gene expression in brain at 0.3 mg/kg/day, ig for 14 days starting from 12th day of immunization by RT-qPCR analysis relative to control; type: functional; conditions: time 14 day
Mus musculus [3] = test: Anti-inflammatory activity against MOG35-55-induced experimental autoimmune encephalomyelitis C57BL/6 mouse model assessed as fold change in PLP gene expression in brain at 0.3 mg/kg/day, ig for 14 days starting from 12th day of immunization by RT-qPCR analysis relative to control; type: functional; conditions: time 14 day
Mus musculus [4] = test: Anti-inflammatory activity against MOG35-55-induced experimental autoimmune encephalomyelitis C57BL/6 mouse model assessed as methylation of CpG sites of […] gene promoter in brain at […], ig for 14 days starting from 12th day of immunization by PCR analysis (reference value: 13.1 +/-8%); type: functional; conditions: time 14 day
Mus musculus [5] = test: Anti-inflammatory activity against MOG35-55-induced experimental autoimmune encephalomyelitis C57BL/6 mouse model assessed as fold change in NFKB gene expression in brain at 0.15 mg/kg/day, ig for 14 days starting from 12th day of immunization by RT-qPCR analysis relative to control; type: functional; conditions: time 14 day
Mus musculus [6] = test: Anti-inflammatory activity against MOG35-55-induced experimental autoimmune encephalomyelitis C57BL/6 mouse model assessed as fold change in TNF-alpha gene expression in brain at 0.3 mg/kg/day, ig for 14 days starting from 12th day of immunization by RT-qPCR analysis relative to control; type: functional; conditions: time 14 day
Mus musculus [7] = test: Anti-inflammatory activity against MOG35-55-induced experimental autoimmune encephalomyelitis C57BL/6 mouse model assessed as fold change in NFKB gene expression in brain at 0.3 mg/kg/day, ig for 14 days starting from 12th day of immunization by RT-qPCR analysis relative to control; type: functional; conditions: time 14 day
Mus musculus [8] = test: Anti-inflammatory activity against MOG35-55-induced experimental autoimmune encephalomyelitis C57BL/6 mouse model assessed as fold change in STAT3 gene expression in brain at 0.3 mg/kg/day, ig for 14 days starting from 12th day of immunization by RT-qPCR analysis relative to control; type: functional; conditions: time 14 day
Mus musculus [9] = test: Anti-inflammatory activity against MOG35-55-induced experimental autoimmune encephalomyelitis C57BL/6 mouse model assessed as reduction in serum Th1 cytokine level by measuring reduction in IL-2 level at 0.3 mg/kg/day, ig for 14 days starting from 12th day of immunization by ELISA; type: functional, organism-based; conditions: time 14.0 day
Mus musculus [10] = test: Anti-inflammatory activity against MOG35-55-induced experimental autoimmune encephalomyelitis C57BL/6 mouse model assessed as fold change in BCL2 gene expression in brain at 0.15 mg/kg/day, ig for 14 days starting from 12th day of immunization by RT-qPCR analysis relative to control; type: functional; conditions: time 14 day
Mus musculus [11] = test: Anti-inflammatory activity against MOG35-55-induced experimental autoimmune encephalomyelitis C57BL/6 mouse model assessed as methylation of CpG sites of […] gene promoter in brain at […], ig for 14 days starting from 12th day of immunization by PCR analysis (reference value: 45 +/-7%); type: functional; conditions: time 14 day
Mus musculus [12] = test: Anti-inflammatory activity against MOG35-55-induced experimental autoimmune encephalomyelitis C57BL/6 mouse model assessed as reduction in EAE symptoms by measuring reduction in clinical score at 0.15 to 0.3 mg/kg/day, ig starting from 12th day of immunization and measured on day 14 post-immunization; type: functional, organism-based; conditions: dose 0.15-0.3 mg/kg/day, time 2.0 day
Mus musculus [13] = test: Anti-inflammatory activity against MOG35-55-induced experimental autoimmune encephalomyelitis C57BL/6 mouse model assessed as fold change in CXCL9 gene expression in brain at 0.15 mg/kg/day, ig for 14 days starting from 12th day of immunization by RT-qPCR analysis relative to control; type: functional; conditions: time 14 day
Mus musculus [14] = test: Anti-inflammatory activity against MOG35-55-induced experimental autoimmune encephalomyelitis C57BL/6 mouse model assessed as increase in serum IL-10 level at 600 mg/kg/day, ig for 14 days starting from 12th day of immunization by ELISA; type: functional, organism-based; conditions: time 14.0 day
Mus musculus [15] = test: Anti-inflammatory activity against MOG35-55-induced experimental autoimmune encephalomyelitis C57BL/6 mouse model assessed as reduction in serum Th1 cytokine level by measuring reduction in IFNG level at 600 mg/kg/day, ig for 14 days starting from 12th day of immunization by ELISA; type: functional, organism-based; conditions: time 14.0 day
Mus musculus [16] = test: Anti-inflammatory activity against MOG35-55-induced experimental autoimmune encephalomyelitis C57BL/6 mouse model assessed as fold change in CXCL10 gene expression in brain at 600 mg/kg/day, ig for 14 days starting from 12th day of immunization by RT-qPCR analysis relative to control; type: functional; conditions: time 14 day
Mus musculus [17] = test: Anti-inflammatory activity against MOG35-55-induced experimental autoimmune encephalomyelitis C57BL/6 mouse model assessed as upregulation of PLP protein expression in brain at 300 to 600 mg/kg/day, ig for 14 days starting from 12th day of immunization by western blot analysis relative to control; type: functional; conditions: dose 300-600 mg/kg/day, time 14 day
Mus musculus [18] = test: Anti-inflammatory activity against MOG35-55-induced experimental autoimmune encephalomyelitis C57BL/6 mouse model assessed as fold change in H2EB1 (HLA-DRB1) gene expression in brain at 600 mg/kg/day, ig for 14 days starting from 12th day of immunization by RT-qPCR analysis relative to control; type: functional; conditions: time 14 day
Mus musculus [19] = test: Anti-inflammatory activity against MOG35-55-induced experimental autoimmune encephalomyelitis C57BL/6 mouse model assessed as fold change in STAT3 gene expression in brain at 600 mg/kg/day, ig for 14 days starting from 12th day of immunization by RT-qPCR analysis relative to control; type: functional; conditions: time 14 day
Mus musculus [20] = test: Anti-inflammatory activity against MOG35-55-induced experimental autoimmune encephalomyelitis C57BL/6 mouse model assessed as fold change in MMP9 gene expression in brain at 600 mg/kg/day, ig for 14 days starting from 12th day of immunization by RT-qPCR analysis relative to control; type: functional; conditions: time 14 day
Mus musculus [21] = test: Anti-inflammatory activity against MOG35-55-induced experimental autoimmune encephalomyelitis C57BL/6 mouse model assessed as increase in serum IL-4 level at 600 mg/kg/day, ig for 14 days starting from 12th day of immunization by ELISA; type: functional, organism-based; conditions: time 14.0 day
Mus musculus [22] = test: Anti-inflammatory activity against MOG35-55-induced experimental autoimmune encephalomyelitis C57BL/6 mouse model assessed as fold change in MBP gene expression in brain at 600 mg/kg/day, ig for 14 days starting from 12th day of immunization by RT-qPCR analysis relative to control; type: functional; conditions: time 14 day
Mus musculus [23] = test: Anti-inflammatory activity against MOG35-55-induced experimental autoimmune encephalomyelitis C57BL/6 mouse model assessed as fold change in PLP gene expression in brain at 300 mg/kg/day, ig for 14 days starting from 12th day of immunization by RT-qPCR analysis relative to control; type: functional; conditions: time 14 day

CCCCCCCCc1ccc(CCC(N)(CO)CO)cc1 [FINGOLIMOD]
fold change (FC) (Mus musculus [1]): -1.85
fold change (FC) (Mus musculus [2]): 2.28
fold change (FC) (Mus musculus [3]): -2.32
Activity (Mus musculus [4]): 19%
fold change (FC) (Mus musculus [5]): 2.04
fold change (FC) (Mus musculus [6]): -1.46
fold change (FC) (Mus musculus [7]): 1.98
fold change (FC) (Mus musculus [8]): 1.87
Activity (Mus musculus [9]): Active
fold change (FC) (Mus musculus [10]): 2.24
Activity (Mus musculus [11]): 44.9%
Activity (Mus musculus [12]): Active
fold change (FC) (Mus musculus [13]): 2.86

CCCCCCCCCCCCCCCCCCCCCCCCC(=O)O[C@H]1CC[C@]2(C)[C@H]3CC=C4[C@@H]5CC(C)(C)CC[C@]5(CO)CC[C@@]4(C)[C@]3(C)CC[C@H]2C1(C)C
Activity (Mus musculus [14]): Active
Activity (Mus musculus [15]): Active
fold change (FC) (Mus musculus [16]): 1.93
fold change (FC) (Mus musculus [17]): 2
fold change (FC) (Mus musculus [18]): 11.4
fold change (FC) (Mus musculus [19]): 1.32
fold change (FC) (Mus musculus [20]): 2.8
Activity (Mus musculus [21]): Active
fold change (FC) (Mus musculus [22]): 3.8
fold change (FC) (Mus musculus [23]): 1.9
